In patent US12421216B2, “Voruciclib polymorphs and methods of making and using thereof” (MEI PHARMA, INC., priority 2019, dated 2025):
“Also recorded” adds a separate entry of the source. Counter-ions that a name gives are not always drawn. Like-named read-outs stand apart in the source and are kept apart here.

What was measured:
[1] = acid counterion; cited from earlier work
[2] = Physical stability upon exposure to accelerated aging conditions (AAC, 40° C./75% RH), re-analysis by HT-XRPD; format: physicochemical
[3] = Physical stability of solid forms upon drying under vacuum, HT-XRPD; format: physicochemical; details: for Solid forms Vacuum: form after drying under deep vacuum (5 mbar, 18 h), HT-XRPD, label = ambient-dried form
Method: (§1) Amorphous voruciclib oxalate salt, generated by freeze-drying, was used to start the thermocycling experiments. Suspensions were prepared in the selected solvent systems at RT. Subsequently, the mixtures were subjected to a temperature profile. After the temperature profile, the solids were separated from the solutions by centrifugation and were dried at ambient conditions and under deep vacuum before being harvested and analyzed by HT-XRPD. The liquid phases were also dried under deep vacuum before being harvested and analyzed by HT-XRPD. All solids were exposed to AAC (40° C./75% RH, 2 days).
(§2) After the temperature profile, the solids were separated from the liquids by centrifugation and the solid phase was dried at ambient conditions and under deep vacuum (5 mbar) before being harvested and analyzed by HT-XRPD. The liquid phases were dried under deep vacuum (5 mbar) and the recovered solids were analyzed by HT-XRPD. All solids were then exposed to accelerated aging conditions (40° C./75% RH, 2 days) followed by HT-XRPD re-analysis.
as §1, with “voruciclib phosphate” for “voruciclib oxalate”, “profile. Upon completion of” for “profile. After”, “dried under” for “dried at”
as §2, with “dried under” for “dried at”, “(5 mbar, 18 h)” for “(5 mbar)”
Amorphous voruciclib malonate salt, generated by freeze-drying, was used to start the thermocycling experiments. Suspensions were prepared in the selected solvent systems at RT and were subjected to three thermocycles between 50 and 5° C., followed by aging at 25° C. for 3 days. Upon completion of the aging time, the solids were separated from the liquids by centrifugation and they were dried at ambient conditions and under deep vacuum (5 mbar) before being harvested and analyzed by HT-XRPD.
After the temperature profile the solids were separated from the solution by centrifugation and they were dried at ambient conditions and under deep vacuum before being harvested and analyzed by HT-XRPD.

[4] = Thermodynamic solubility of voruciclib HCl by the shake-flask method (HPLC); format: physicochemical; details: RT; for Solubility classification: USP29
[5] = Solubility of salts in water and in 0.2 M phosphate buffer pH 6 at 37° C. after 4 hours (HPLC-DAD); format: physicochemical; details: 37° C., 4 hours, listed as Voruciclib HCl salt
Method: Two sets of solubility experiments were performed. […] In the second set of solubility experiments about 5 mg of the salt was weighed in a standard 1.8 mL HPLC vial. Subsequently, aliquots of 200 μL of aqueous medium were added up to a maximum of 1 mL, while making observations regarding the dissolution behavior of the salts. The vials were left to equilibrate at 37° C. with continuous stirring (see Table 25 for details). After 4 hours the solids were separated from the liquid by centrifugation and the liquid phase was further filtrated through a […] PTFE filter to remove any particulate matter. The concentration of solute was determined by HPLC-DAD analysis. A calibration curve was made from two independent stock solutions of voruciclib prepared in acetonitrile/water. The pH was recorded at the end of the equilibration time.

In the case of O=C(O)C[C@H](O)C(=O)O [(−)-L-Malic], the pka1 [1] is listed as 3.5 and the pka2 [1] is listed as 5.1.

In the case of O=C(O)[C@H](O)[C@@H](O)[C@H](O)[C@H](O)CO [D-Gluconic], the pka1 [1] is listed as 3.8.

For O=C(O[C@@H](C(=O)O)[C@@H](OC(=O)c1ccccc1)C(=O)O)c1ccccc1 [Dibenzoyl-L-tartaric], the pka1 [1] is listed as 1.9.

In the case of O=S(=O)(O)CCS(=O)(=O)O [Ethane-1,2-disulfonic], the pka1 [1] is listed as −2.1 and the pka2 [1] is listed as −1.5.

For CCS(=O)(=O)O [Ethanesulfonic], the pka1 [1] is listed as 2.1.

For O=C(O)CCCC(=O)O [Glutaric], the pka1 [1] is given as 4.3 and the pka2 [1] is given as 5.3.

For O=S(=O)(O)c1cccc2c(S(=O)(=O)O)cccc12 [Naphthalene-1,5-disulfonic], the pka1 [1] is listed as −3.4 and the pka2 [1] is listed as −2.6.

For O=S(=O)(O)c1ccc2ccccc2c1 [Naphthalene-2-sulfonic], the pka1 [1] is listed as 0.2.

For CN1CCC(c2c(O)cc(O)c3c(=O)cc(-c4ccc(C(F)(F)F)cc4Cl)oc23)C1CO.O=C(O)C(=O)O (stereo not shown) [Oxa2 + peaks], the “Solid forms Ambient AAC” value ([2]; oxalate salt thermocycling, ambient-dried solids after AAC (40° C./75% RH, 2 days), HT-XRPD) was “Oxa2 + peaks”, the “Solid forms Vacuum AAC” value ([2]; oxalate salt thermocycling, vacuum-dried solids after AAC (40° C./75% RH, 2 days), HT-XRPD) was “Oxa2 + peaks” and the “Solid forms Vacuum” value ([3]; oxalate salt thermocycling solids) was “Oxa2 + peaks”.

For CN1CCC(c2c(O)cc(O)c3c(=O)cc(-c4ccc(C(F)(F)F)cc4Cl)oc23)C1CO.O=P(O)(O)O (stereo not shown) [Pho7], the “Physical stability upon exposure to AAC” value ([2]; 40° C./75% RH, 2 days, HT-XRPD before and after) was “additional diffraction peaks were observed; also recorded: unstable upon exposure to AAC”, the “Physical stability upon drying under deep/high vacuum” value ([3]; oxalate, phosphate, malonate forms, 5 mbar, 18 h) was “remained physically stable” and the “Solid forms Vacuum” value ([3]; phosphate salt thermocycling solids) was “Pho7”.

For CN1CC[C@@H](c2c(O)cc(O)c3c(=O)cc(-c4ccc(C(F)(F)F)cc4Cl)oc23)[C@@H]1CO [voruciclib HCl], the solubility at 24 h ([4]; 1,2-dimethoxyethane, organic solvent or mixture, thermodynamic from solid, 1,2-Dimethoxyethane, 24 h, amorphous API, HPLC, read-out: Solubility) was 1600 µg/mL, the solubility at 24 h ([4]; 1,4-dioxane, organic solvent or mixture, thermodynamic from solid, 1,4-Dioxane, 24 h, amorphous API, HPLC, read-out: Solubility) was 400 µg/mL and the “solubility” value ([4]; 1-Propanol, 24 h, amorphous API, HPLC) was 34500 µg/mL. The solubility at 24 h ([4]; 1-propanol, organic solvent or mixture, thermodynamic from solid, 1-Propanol, 24 h, amorphous API, HPLC, read-out: Solubility) was 34000 µg/mL, the “solubility” value ([4]; 2-Butanol, 24 h, amorphous API, HPLC) was 10200 µg/mL and the “solubility” value ([4]; 2-Propanol, 24 h, amorphous API, HPLC) was 18800 µg/mL. The solubility at 24 h ([4]; 2-butanol, organic solvent or mixture, thermodynamic from solid, 2-Butanol, 24 h, amorphous API, HPLC, read-out: Solubility) was 10000 µg/mL, the solubility at 24 h ([4]; 2-methyltetrahydrofuran, organic solvent or mixture, thermodynamic from solid, 2-Methyltetrahydrofuran, 24 h, amorphous API, HPLC, read-out: Solubility) was 1600 µg/mL and the solubility at 24 h ([4]; 2-propanol, organic solvent or mixture, thermodynamic from solid, 2-Propanol, 24 h, amorphous API, HPLC, read-out: Solubility) was 19000 µg/mL. The “solubility” value ([4]; Dimethyl sulfoxide, amorphous API, no suspension obtained, concentration of the solution after first aliquot) was >400000 µg/mL, the “solubility” value ([4]; Ethanol, 24 h, amorphous API, HPLC) was 62000 µg/mL and the “solubility” value ([4]; Methanol, 24 h, amorphous API, HPLC) was 229500 µg/mL. For the same compound, the “solubility” value ([4]; N,N-Dimethylacetamide, amorphous API, no suspension obtained, concentration of the solution after first aliquot) was >400000 µg/mL, the “solubility” value ([4]; N,N-Dimethylformamide, amorphous API, no suspension obtained, concentration of the solution after first aliquot) was >400000 µg/mL and the solubility ([4]; N,N-dimethylacetamide, organic solvent or mixture, thermodynamic from solid, N,N-Dimethylacetamide, amorphous API, no suspension obtained, concentration of the solution after first aliquot, read-out: Solubility) was > 400000 µg/mL. For the same compound, the solubility ([4]; N,N-dimethylformamide, organic solvent or mixture, thermodynamic from solid, N,N-Dimethylformamide, amorphous API, no suspension obtained, concentration of the solution after first aliquot, read-out: Solubility) was > 400000 µg/mL, the Solubility classification ([4]; 2-Propanol, 2-Butanol) was “Sparingly soluble” and the Solubility classification ([4]; Acetonitrile, Ethyl acetate, Methyl isobutyl ketone, Dichloromethane, Isopropyl acetate, 1,4-Dioxane, Diethyl ether, tert-Butyl methyl ether, Toluene) was “Very slightly soluble”. The Solubility classification ([4]; Anisole, p-Xylene, Diisopropyl ether, Cumene, Cyclohexane, n-Hexane, n-Heptane, Hexanes) was “Practically insoluble”, the Solubility classification ([4]; Ethanol, 1-Propanol) was “Soluble” and the Solubility classification ([4]; N,N-Dimethylacetamide, Dimethyl sulfoxide, N,N-Dimethylformamide, Methanol) was “Freely soluble”. The Solubility classification ([4]; Tetrahydrofuran, Acetone, Chloroform, 1,2-Dimethoxyethane, 2-Methyltetrahydrofuran, Ethyl formate, Methyl ethyl ketone) was “Slightly soluble”, the solubility at 24 h ([4]; acetone, organic solvent or mixture, thermodynamic from solid, Acetone, 24 h, amorphous API, HPLC, read-out: Solubility) was 3500 µg/mL and the solubility at 24 h ([4]; acetonitrile, organic solvent or mixture, thermodynamic from solid, Acetonitrile, 24 h, amorphous API, HPLC, read-out: Solubility) was 900 µg/mL. The solubility at 24 h ([4]; anisole, organic solvent or mixture, thermodynamic from solid, Anisole, 24 h, amorphous API, HPLC, read-out: Solubility) was < 100 µg/mL, the solubility at 24 h ([4]; chloroform, organic solvent or mixture, thermodynamic from solid, Chloroform, 24 h, amorphous API, HPLC, read-out: Solubility) was 3100 µg/mL and the solubility at 24 h ([4]; cumene, organic solvent or mixture, thermodynamic from solid, Cumene, 24 h, amorphous API, HPLC, read-out: Solubility) was < 100 µg/mL. For the same compound, the solubility at 24 h ([4]; cyclohexane, organic solvent or mixture, thermodynamic from solid, Cyclohexane, 24 h, amorphous API, HPLC, read-out: Solubility) was < 100 µg/mL, the solubility at 24 h ([4]; dichloromethane, organic solvent or mixture, thermodynamic from solid, Dichloromethane, 24 h, amorphous API, HPLC, read-out: Solubility) was 500 µg/mL and the solubility at 24 h ([4]; diethyl ether, organic solvent or mixture, thermodynamic from solid, Diethyl ether, 24 h, amorphous API, HPLC, read-out: Solubility) was 200 µg/mL. For the same compound, the solubility at 24 h ([4]; diisopropyl ether, organic solvent or mixture, thermodynamic from solid, Diisopropyl ether, 24 h, amorphous API, HPLC, read-out: Solubility) was < 100 µg/mL, the solubility ([4]; dimethyl sulfoxide, organic solvent or mixture, thermodynamic from solid, Dimethyl sulfoxide, amorphous API, no suspension obtained, concentration of the solution after first aliquot, read-out: Solubility) was > 400000 µg/mL and the solubility at 24 h ([4]; ethanol, organic solvent or mixture, thermodynamic from solid, Ethanol, 24 h, amorphous API, HPLC, read-out: Solubility) was 62000 µg/mL. For the same compound, the solubility at 24 h ([4]; ethyl acetate, organic solvent or mixture, thermodynamic from solid, Ethyl acetate, 24 h, amorphous API, HPLC, read-out: Solubility) was 800 µg/mL, the solubility at 24 h ([4]; ethyl formate, organic solvent or mixture, thermodynamic from solid, Ethyl formate, 24 h, amorphous API, HPLC, read-out: Solubility) was 1600 µg/mL and the solubility at 24 h ([4]; hexanes, organic solvent or mixture, thermodynamic from solid, Hexanes, 24 h, amorphous API, HPLC, read-out: Solubility) was < 100 µg/mL. It also gave a solubility at 24 h ([4]; isopropyl acetate, organic solvent or mixture, thermodynamic from solid, Isopropyl acetate, 24 h, amorphous API, HPLC, read-out: Solubility) of 500 µg/mL, a solubility at 24 h ([4]; methanol, organic solvent or mixture, thermodynamic from solid, Methanol, 24 h, amorphous API, HPLC, read-out: Solubility) of 230000 µg/mL and a solubility at 24 h ([4]; methyl ethyl ketone, organic solvent or mixture, thermodynamic from solid, Methyl ethyl ketone, 24 h, amorphous API, HPLC, read-out: Solubility) of 1100 µg/mL. The solubility at 24 h ([4]; methyl isobutyl ketone, organic solvent or mixture, thermodynamic from solid, Methyl isobutyl ketone, 24 h, amorphous API, HPLC, read-out: Solubility) was 700 µg/mL, the solubility at 24 h ([4]; n-heptane, organic solvent or mixture, thermodynamic from solid, n-Heptane, 24 h, amorphous API, HPLC, read-out: Solubility) was < 100 µg/mL and the solubility at 24 h ([4]; n-hexane, organic solvent or mixture, thermodynamic from solid, n-Hexane, 24 h, amorphous API, HPLC, read-out: Solubility) was < 100 µg/mL. For the same compound, the solubility at 24 h ([4]; p-xylene, organic solvent or mixture, thermodynamic from solid, p-Xylene, 24 h, amorphous API, HPLC, read-out: Solubility) was < 100 µg/mL, the solubility at 24 h ([4]; solvents other than DMA, DMF, DMSO and alcohols, organic solvent or mixture, thermodynamic from solid, solvents other than DMA, DMF, DMSO and alcohols, read-out: Solubility in all the other solvents) was < 10000 µg/mL and the solubility at 24 h ([4]; tert-butyl methyl ether, organic solvent or mixture, thermodynamic from solid, tert-Butyl methyl ether, 24 h, amorphous API, HPLC, read-out: Solubility) was 100 µg/mL. For the same compound, the solubility at 24 h ([4]; tetrahydrofuran, organic solvent or mixture, thermodynamic from solid, Tetrahydrofuran, 24 h, amorphous API, HPLC, read-out: Solubility) was 9600 µg/mL, the solubility at 24 h ([4]; toluene, organic solvent or mixture, thermodynamic from solid, Toluene, 24 h, amorphous API, HPLC, read-out: Solubility) was 100 µg/mL and the “Solubility pH 6” value ([5]; 0.2M phosphate buffer (pH 6)) was 0.01 mg/mL. For the same compound, the Solubility water ([5]; water) was “Gel”.
